Reference: patent US8889660B2, “Methods for treating obesity or an obesity related condition” (Case Western Reserve University, priority 2010, dated 2014)
“Also recorded” adds a separate entry of the source.

Legend:
[1] = system: retinoic acid receptor (RAR); experiment: Activation of retinoic acid response element (RARE) / RAR; assay type: cell-based; conditions: FIGS. 1A-B, 7 and 8
Source text: FIG. 7 is a histogram showing the activation of retinoic acid response element (RARE) by all-trans-retinol (ROL), (13R)-all-trans-13,14-dihydroretinol (DROL R) and (13S)-all-trans-13,14-dihydroretinol (DROL S);
FIG. 8 is a histogram showing the activation of retinoic acid response element (RARE) by all-trans-retinoic acid (RA), (13R)-all-trans-13,14-dihydroretinoic acid (DRA R) and (13S)-all-trans-13,14-dihydroretinoic acid (DRA S); and
The at least one receptor may also include a retinoic acid receptor (RAR), such as RAR-α, RAR-β and RAR-γ which, when activated, translocates to a cell nucleus, binds to hormone response element on DNA, and elicits expression or transexpresssion of gene products. Alternatively, at least one response element, such as the RAR response element (RARE), can be activated.

[2] = target: retinol binding protein 4 (RBP4) (Homo sapiens, UniProt P02753); experiment: Binding to RBP4 by fluorescence quenching; conditions: FIG. 9
Source text: FIG. 9 is a series of graphs showing the binding of (R)-all-trans-13,14-dihydroretinol and (S)-all-trans-13,14-dihydroretinol to RBP4, as determined by fluorescence quenching.
In another aspect of the present invention, the marker corresponding to the level and/or activity of an all-trans-retinol:all-trans-13,14-dihydroretinol saturase polypeptide may comprise a metabolite, such as a retinoid, associated with all-trans-retinol:all-trans-13,14-dihydroretinol saturase activity. The marker can include, for example, a retinoid having a saturated C13-14 double bond. More particularly, the retinoid having a saturated C13-14 double bond can include all-trans-13,14-dihydroretinol and/or all-trans-13,14-dihydrotretinoic acid. […] Increased levels of RBP4 are associated with the metabolic syndrome, diabetic disease and correlate with increased insulin resistance, obesity and visceral adiposity. Various techniques known in the art may be used to detect dihydroretinoid metabolite levels in a tissue sample, including, but not limited to, chromatography-based methods, electrophoresis and sedimentation, mass spectroscopy, and/or antibody-based methods. […]

[3] = target: T1, G-protein-coupled receptor 40 (GPR40) (Homo sapiens, UniProt O14842); experiment: Calcium responses of GPR40-expressing cells (receptor screening); assay type: cell-based; conditions: calcium responses of GPR40 and Ga16 cells, FIGS. 1A-B
T1 construct: expressed in transfected cells; host or cells: GPR40-expressing recombinant cells
Description: FIGS. 1A-B are a series of histographs showing the screening of potential receptors for all-trans-13,14-dihydroretinoic acid. FIG. 1A is a histogram showing calcium responses of G-protein-coupled receptor 40 and Ga16 cells to 100 μM fatty acids and retinoic acids. FIG. 2A is a histogram showing calcium responses to retinoic acid compounds at 10 μM;
The activation of GPR40 by all-trans-13,14-dihydroretinoic acid is studied in vitro by measuring the calcium flux and internalization of GPR40 in response to all-trans-13,14-dihydroretinoic in GPR40-expressing recombinant cells. In collaboration with Dr. de Lera University of Vigo, Spain, we have produced synthetic enantiomerically pure (R) or (S) all-trans-13,14-dihydroretinol and all-trans-13,14-dihydroretinoic acid and we have determined the stereospecificity of the RetSat catalyzed reaction. Activation of GPR40 by all-trans-13,14-dihydroretinoic acid leading to secretion of insulin is studied by measuring the level of secreted insulin from INS-1 insulinoma cells or from primary pancreatic β-cells primed with all-trans-13,14-dihydroretinoic acid.

wild type mice = experiment: Injection in wild type mice, glycemia; assay type: in vivo

T1 sequence (O14842 whole entry, species assumed): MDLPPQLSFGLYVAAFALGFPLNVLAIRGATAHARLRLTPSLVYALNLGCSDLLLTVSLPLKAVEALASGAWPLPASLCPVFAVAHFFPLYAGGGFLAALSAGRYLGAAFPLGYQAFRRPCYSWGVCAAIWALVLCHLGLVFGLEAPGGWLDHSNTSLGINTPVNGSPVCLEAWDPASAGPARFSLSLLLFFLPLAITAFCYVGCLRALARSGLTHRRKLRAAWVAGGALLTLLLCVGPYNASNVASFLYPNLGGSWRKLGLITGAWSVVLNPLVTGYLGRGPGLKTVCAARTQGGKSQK

SMILES | activation of retinoic acid receptor (RAR/RARE) [1] | binding to RBP4 [2] | activation of GPR40 [3] | effect on blood glucose after injection (wild type mice)
CC1=C(/C=C/C(C)=C/C=C/[C@H](C)CCO)C(C)(C)CCC1 [(R)-all-trans-13,14-dihydroretinol, (13R)-13,14-Dihydroretinol] | can also activate RAR | associated with the carrier protein retinol binding protein 4 (RBP4) | – | –
CC1=C(/C=C/C(C)=C/C=C/[C@@H](C)CCO)C(C)(C)CCC1 [(S)-all-trans-13,14-dihydroretinol, (13S)-13,14-Dihydroretinol] | can also activate RAR | associated with the carrier protein retinol binding protein 4 (RBP4) | – | –
CC1=C(/C=C/C(C)=C/C=C/C(C)CCO)C(C)(C)CCC1 (stereo not drawn) [all-trans-13,14-dihydroretinol] | – | – | – | prolonged hypoglycemia

Now from value to molecule, other results behind:

activation of retinoic acid receptor (RAR/RARE) [1] | SMILES | binding to RBP4 [2] | activation of GPR40 [3] | effect on blood glucose after injection (wild type mice)
can activate RAR | CC1=C(/C=C/C(C)=C/C=C/[C@H](C)CC(=O)O)C(C)(C)CCC1 (stereo in doubt) [(R)-all-trans-13,14-dihydroretinoic acid] | – | – | –
can activate RAR | CC1=C(/C=C/C(C)=C/C=C/[C@@H](C)CC(=O)O)C(C)(C)CCC1 (stereo in doubt) [(S)-all-trans-13,14-dihydroretinoic acid] | – | – | –
activator | CC1=C(/C=C/C(C)=C/C=C/C(C)CC(=O)O)C(C)(C)CCC1 (stereo not drawn) [all-trans-13,14-dihydroretinoic acid] | – | activator; also recorded: can be activated by all-trans-13,14-dihydroretinoic acid | –
